Our source for the EC50 and IC50 values is patent US20250186404A1, “METHODS OF USING A (THIAZOLYL)BENZENESULFONAMIDE DERIVATIVE” (Cyteir Therapeutics, Inc., priority 2023, published 2025).

In assay [1] the test system is Daudi (Burkitt Lymphoma) cells. In words: Intracellular Lactate Accumulation Assay (Lactate-Glo). It counts as cell-based, human. The settings on record: Homo sapiens; Daudi cells, 2 h treatment, intracellular lactate accumulation; read-out: LactateGlo EC50. The procedure:
Intracellular lactate accumulation after a 2 h treatment with compounds of the present invention was measured in Daudi (Burkitt Lymphoma) cells using the Lactate-Glo Assay (Promega).
Daudi cells were seeded at 7,500 cells per well in 150 μL of growth medium (RPMI-1640 with 2 mM GlutaMAX+10% FBS) in clear, 96-well, flat-bottom microplates, and incubated overnight (37° C., 5% CO2). Compounds of the present invention were added using an INTEGRA VIAFLO 96 (8 point, 3-fold serial dilution, top concentration 1, 10, or 20 μM, 0.4% final DMSO concentration). After a 2 h incubation (37° C., 5% CO2) microplates containing cells were washed twice with 150 μL ice-cold PBS, resuspended in 25 μL ice-cold PBS containing 12.5 μL 0.6N HCl, and placed on a microplate shaker for 5 min to lyse the cells. Following lysis, 12.5 μL 1M Trizma base was added to neutralize the suspension, and microplates were returned to the microplate shaker for 1 min. Plates were sealed and stored at −20° C. until further processing. On the day of the assay, microplates were thawed for 45 min at room temperate and 50 μL Lactate Detection Reagent (prepared as specified by manufacturer) was added to each well. Microplates were placed on a plate shaker for 1 min and incubated at room temperature for 1 h. Luminescence was measured using a BioTek Cytation 5 Multi-Mode Reader. Curve fitting and calculation of EC50 was performed using GraphPad Prism.
In addition, Daudi human lymphoma cells were treated with a titration of Compound 67A for 4 h, then intracellular lactate was measured via LactateGlo (FIG. 2). Compound 67A treatment elevates intracellular lactate (FIGS. 3-5). […] Inhibiting MCT function in glycolytic cancer cells leads to an accumulation of intracellular lactate that impairs glycolysis and inhibits tumor cell growth, thereby making MCTs an attractive target for cancer therapy. Compound 67A inhibits the import of MCT ligands into cells, and induces dose-dependent intracellular lactate accumulation that correlates with cytotoxicity. MCT4 expression inversely correlates with lactate accumulation and the extent of Compound 67A cytotoxicity in cells.

In the next assay the target is T1, human MCT1 (Homo sapiens, UniProt P53985).
T1 construct: host or cells: MDCK-II (canine) cells, transient co-transfection
T1 sequence (P53985 1-500): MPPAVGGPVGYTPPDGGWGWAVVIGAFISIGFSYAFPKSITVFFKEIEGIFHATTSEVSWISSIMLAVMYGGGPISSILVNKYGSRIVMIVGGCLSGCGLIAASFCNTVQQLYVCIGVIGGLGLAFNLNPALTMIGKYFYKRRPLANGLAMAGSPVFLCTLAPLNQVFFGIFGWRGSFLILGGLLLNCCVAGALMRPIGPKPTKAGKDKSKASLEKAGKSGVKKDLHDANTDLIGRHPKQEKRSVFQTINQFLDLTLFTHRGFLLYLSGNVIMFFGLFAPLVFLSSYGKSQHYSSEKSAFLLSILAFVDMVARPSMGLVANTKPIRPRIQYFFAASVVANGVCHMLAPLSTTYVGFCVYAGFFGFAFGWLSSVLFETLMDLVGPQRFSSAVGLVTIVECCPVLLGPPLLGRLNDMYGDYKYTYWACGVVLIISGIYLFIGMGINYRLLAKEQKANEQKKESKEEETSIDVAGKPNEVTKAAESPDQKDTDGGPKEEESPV
T1 sequence (P35613 140-385 partner limits assumed): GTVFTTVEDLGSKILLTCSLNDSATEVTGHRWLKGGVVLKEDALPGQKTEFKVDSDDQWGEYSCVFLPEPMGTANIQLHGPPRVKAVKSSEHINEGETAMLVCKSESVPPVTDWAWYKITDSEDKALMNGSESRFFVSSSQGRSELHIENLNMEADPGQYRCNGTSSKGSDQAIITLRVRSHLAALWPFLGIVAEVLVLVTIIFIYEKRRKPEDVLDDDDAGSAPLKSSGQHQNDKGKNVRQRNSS
In words: MCT1 Transport Inhibition Assay (TPGA uptake, LC-MS/MS). The class given is cell-based. The settings on record: MDCK-II cells overexpressing human MCT1, TPGA transport; read-out: BioIVT MCT1 Transporter IC50. The procedure:
Inhibition of MCT1 transport after treatment with compounds of the present invention was measured in MDCK-II cells that overexpress human MCT1 by quantifying the transport of 2-Thiophene-glycoxylic acid (TPGA) into cells using LC-MS/MS.
MDCK-II cells are seeded at 60,000 cells per well in growth medium (low-glucose DMEM+10% FBS) in 96-well trans-well membrane plates, and incubated overnight (37° C., 5% CO2). Cells were co-transfected with mammalian expression constructs coding for MCT1 and CD147 at a 2:1 ratio or an empty vector control (GFP) and then incubated for 48 h (37° C., 5% CO2). Cells were washed 3 times with HBSS and cells were preincubated with inhibitors or vehicle control at room temperature in HBSS for 30 min with orbital shaking (60 rpm). HBSS was aspirated from the wells and replaced with HBSS with 25 mM Bis-Tris pH5.5+inhibitor or vehicle control+500 μM TPGA and incubated for 1 min at room temperature with orbital shaking (60 rpm). Both the apical and basolateral side of the trans-well insert were washed 4 times with ice-cold PBS. Cells were lysed with 60 μL of cell extraction solution, and the amount of TPGA in each well was quantified in triplicate by LC-MS/MS. The MCT1-mediated uptake rate was calculated using the following equation: […]
Percent inhibition for each concentration of inhibitor tested was calculated using the following equation: […]
Curves were fit to the calculated percent inhibition for each inhibitor, and the IC50 representing the concentration of inhibitor at which MCT1 is inhibited by 50% was calculated from this curve.
Canine MDCKII cells expressing human MCT1 were treated with a titration of Compound 67A, and import of the MCT1 substrate, 2-TPGA was measured by LC-MS (FIG. 1).

Take `CC(C)OC(=O)Nc1ccc(-c2cnc([C@H]3CC[C@@H](NC(=O)OC(C)C)CC3)s2)c(S(=O)(=O)NC(C)(C)C)c1` [Compound 67B]: the EC50 in assay [1] was above 5 µM. Further, the IC50 on human MCT1 lay in the range of 1 to 5 µM. In the case of `CNC(=N)Nc1ccc(-c2cnc(C3CCC(NC(=O)OC(C)C)CC3)s2)c(S(=O)(=O)NC(C)(C)C)c1` (stereo not drawn) [Compound 75], the EC50 in assay [1] was above 5 µM. As to `CC(C)OC(=O)N[C@H]1CC[C@H](c2ncc(-c3ccc(NC(=O)NCc4ccccc4)cc3S(=O)(=O)NC(C)(C)C)s2)CC1` [Compound 62B], at human MCT1, the IC50 was in the range of 0.15 to 1 µM. With `CC(C)OC(=O)NC1CCC(c2ncc(-c3ccc(NC(=O)NCc4ccccc4)cc3S(=O)(=O)NC(C)(C)C)s2)CC1` (stereo not drawn) [Compound 62B], in assay [1], the EC50 is below 0.05 µM. Still for that read-out and setting: the figure for `COC(=O)NC1CCC(c2ncc(-c3ccc(NC(=O)OC(C)C)cc3S(=O)(=O)NC(C)(C)C)s2)CC1` (stereo not drawn) [Compound 76] is above 5 µM.
